Assay results: patent publication US7189750B2, “Thiazole-based nitric oxide donors having at least two thiazole moieties and uses thereof” (priority 2004, dated 2007)

Key:
Assay type in all cases: cell-based
isolated rat aorta [1] = assay: In vitro vasorelaxation of epinephrine-contracted rat aortic rings (CCRC); conditions: for vasorelaxation effect as compared with glyceryltrinitrate: isolated rat aorta, 1 μM epinephrine
Text: Male Sprague Dawley rats were anaesthetized using intraperitoneal injection of ketamine and xylazine (50 and 10 milligram per kilogram, respectively) and the thoracic aorta, the large upper portion of the descending aorta, starting at the caudal border of the chest bone, was removed thereafter, while carefully removing the paraadventetial tissue surrounding the vessel. Aortae were cut into rings of 4–5 millimeters and mounted onto the tissue path. The path buffer (Krebs-bicrbonate) was constantly gassed with carbogen and maintained at 37° C. The rings were preloaded under 2 g tension and equilibrated for 90 minutes, while refreshing the buffer every 15 minutes. After stabilization, the rings were contracted with epinephrine (1 μM). Cumulative Concentration-Response Curves (CCRC) were measured for the vasorelaxing effect induced by adding various concentrations, ranging from 10^−10 M to 10^−5 M of Pet-2, Pet-3, Pet-7, Pet-8, Pet-12, Pet-24, Pet-43, Pet-59, Pet-147, Pet-152 and Pet-154, and glyceryltrinitrate (GTN), according to the procedure described in Feelich et al., Molecular Pharmacology, 56:243–253 (1999). The vehicle, which was used for this experiment was water:ethanol:propyleneglycol at proportional ratio of 1:1:1.
The vasorelaxing effect of the thiazole-derived NO-donors according to the present invention was measured on slices of thoracic aorta of rats contracted with epinephrine, as described hereinabove.

[2] = tested on: c-GMP in slices of thoracic aorta of rats; assay: Cyclic-GMP measurement in aortic rat tissue (radioimmunoassay); conditions: for levels of cGMP as compared with GTN: isolated rat aorta; for cGMP Post-infusion / cGMP Pre-infusion: rat aorta; for cGMP Post-infusion: post-infusion (repeated treatment)
Experimental: GTN (10^−6 M) was added to the chamber and, 1 minute after exposure to the drug, rings (usually 3–5) were taken, wrapped with aluminum foil and immediately frozen in liquid nitrogen for storage. Control sample group was treated with the vehicle solution only. At the time of analysis, rings were thawed, blotted over a dry gauzed and weighted. A known weight of tissue was homogenized in 2 ml ice-cold modified Hank's balanced salt solution containing (in gram/liter) NaCl 8; KCl 0.4; glucose 1; KH2PO4 0.06; Na2HPO4 0.047; Phenol red 0.017 and further containing 25 mM EDTA (disodium salt). The homogenate was centrifuged at 4000 g (force units) for 10 minutes at 2–4° C. and the supernatant was thereafter transferred into fresh pre-cooled test tube containing 1 ml of acetonitrile. The tubes were vortex mixed for a few seconds and subsequently centrifuged at 4000 g for 5 minutes at 2–4° C., to remove the precipitated protein. Each supernatant was transferred into a clean test tube and evaporated to dryness under a stream of nitrogen at 55° C. The dry residue was reconstituted with 10 volumes of Tris-EDTA buffer pH 7.5 (0.05 M Tris containing 4 mM EDTA). Aliquots of 100 μl of the reconstituted solution in duplicate were used for c-GMP measurements using Amersham RIA kit, as is described in Haj-Yehia & Benet [Pharmacology, 1995, 273, 1, pp. 94–100]. Standard curves were plotted with six concentrations (0, 0.5, 1, 2, 4 and 8 pmoles of c-GMP per tube).
The NO-tolerance effect of GTN and NO-donor compounds according to the present invention was measured by following the production of c-GMP in slices of thoracic aorta of rats. Thus, the production of c-GMP was measured as described in the methods section above for the reference NO-donor compound GTN, and for the NO-donors of the present invention Pet-2, Pet-3, Pet-7, Pet-8, Pet-10, Pet-12, Pet-24, Pet-59, Pet-147, Pet-149, Pet-152, Pet-154 and Pet-155.

isolated rat aorta [3] = assay: In vitro induction of tolerance and cross-tolerance: vasorelaxation of pre-exposed rat aortic rings; conditions: for EC50: Rattus norvegicus; for tolerance induction in vitro: rings pre-treated with epinephrine and then with the same compound (0.44 mM)
Experimental: Aortic rings were prepared as described hereinabove, and were exposed to 0.44 mM GTN (vehicle was water:ethanol:propyleneglycol at proportional ratio of 1:1:1) for 1 hour before CCRC construction, to thereby induce tolerance to nitroglycerine. At the end of the tolerance induction period, rings were thrice washed with the path buffer (Krebs-bicrbonate) every 15 minutes for the following hour and then CCRC for vasorelaxation on GTN-induced tolerance rings were constructed for GTN (pretreated versus untreated rings, FIG. 15), in order to verify the ability to induce and measure GTN tolerance induction in vitro
Attempted induction of tolerance to the NO-donating compounds of the present invention was performed under the same conditions as for GTN. Thus, in an exemplary experiment, rings were exposed to 0.44 mM solution of Pet-3 in the attempt to induce tolerance for Pet-3. CCRC were then measured for the vasorelaxing effect of Pet-3 on a group of rings which were pre-exposed to Pet-3 as to induce tolerance to Pet-3, and for an untreated control group. The above protocol was repeated with Pet-2, Pet-7, Pet-8, Pet-12, Pet-24, Pet-43, Pet-149 and Pet-152.
Cross-tolerance studies were conducted using the same technique described above for measuring vasorelaxation of aortic rings from rats. Two groups of aortic rings samples were pre-treated with GTN, then one group was measured for vasorelaxation by GTN and the second group for vasorelaxation by Pet-12, an exemplary NO-donor according to the present invention. For the opposite cross-tolerance studies, two groups of aortic rings samples were pre-treated with Pet-12, then one group was measured for vasorelaxation by GTN and the second group for vasorelaxation by Pet-12.

[4] = Rattus norvegicus, read-out: Concentration
[5] = vasorelaxation, rat aortic rings contracted with 1 μM epinephrine, 10^−10 M to 10^−5 M, read-out: Concentration
[6] = vasorelaxation, rat aortic rings contracted with 1 μM epinephrine, given as negative log value, read-out: EC50 (converted)
[7] = vasorelaxation of rings pre-exposed to 0.44 mM of the same compound for 1 hour, given as negative log value, read-out: EC50 (converted)
[8] = vasorelaxation of rings pre-exposed to 0.44 mM of the same compound for 1 hour, read-out: Concentration

## Cc1nc(C)c(CCO[N+](=O)[O-])s1 [Pet-3, 2,4-Dimethyl-5-(2-nitrooxy-ethyl)-thiazole]
Isolated rat aorta [1]; Rattus norvegicus
  EC50: 35.5 nM
Isolated rat aorta [1]; [4]
  EC50: 35.5 nM
Isolated rat aorta [1]
  vasorelaxation effect as compared with glyceryltrinitrate: superior
[2]
  levels of cGMP as compared with GTN: increased
  cGMP Post-infusion: 118 ± 10 pmol/g tissue
  cGMP Pre-infusion: 122 ± 14 pmol/g tissue
Isolated rat aorta [3]; 1 h
  EC50: 50.1 nM
Isolated rat aorta [3]; 1 h, read-out: Concentration
  EC50: 50.1 nM
Isolated rat aorta [3]
  tolerance induction in vitro: absence of tolerance induction

## Cc1nc(N(C)C)sc1CCO[N+](=O)[O-] [Pet-7, Dimethyl-[4-methyl-5-(2-nitrooxy-ethyl)-thiazol-2-yl]-amine]
Isolated rat aorta [1]
  vasorelaxation effect as compared with glyceryltrinitrate: 10 fold
Isolated rat aorta [1]; [5]
  EC50: 28.2 nM
Isolated rat aorta [1]; [6]
  EC50: 28.2 nM
[2]
  levels of cGMP as compared with GTN: increased
  cGMP Post-infusion: 123 ± 12 pmol/g tissue
  cGMP Pre-infusion: 120 ± 12 pmol/g tissue
Isolated rat aorta [3]; [7]
  EC50: 35.5 nM
Isolated rat aorta [3]; [8]
  EC50: 50.1 nM
Isolated rat aorta [3]
  tolerance induction in vitro: absence of tolerance induction

## Cc1nc(NC(=O)c2cccnc2)sc1CCO[N+](=O)[O-] [Pet-154, N-[4-methyl-5-(2-nitrooxy-ethyl)-thiazol-2-yl]-nicotinamide]
Isolated rat aorta [1]; [5]
  EC50: 39.8 nM
Isolated rat aorta [1]; [6]
  EC50: 39.8 nM
[2]
  levels of cGMP as compared with GTN: increased
Isolated rat aorta [3]; [7]
  EC50: 39.8 nM
Isolated rat aorta [3]; [8]
  EC50: 39.8 nM

## C=CCNc1nc(C)c(CCO[N+](=O)[O-])s1 [Pet-155, allyl-[4-methyl-5-(2-nitrooxy-ethyl)-thiazol-2-yl]-amine]
Isolated rat aorta [1]
  vasorelaxation effect as compared with glyceryltrinitrate: superior
[2]
  levels of cGMP as compared with GTN: increased
Isolated rat aorta [3]; [7]
  EC50: 50.1 nM
Isolated rat aorta [3]; [8]
  EC50: 50.1 nM

## Cc1nc(NC(=O)[C@@H](C)c2ccc(CC(C)C)cc2)sc1CCO[N+](=O)[O-] (stereo in doubt) [Pet-152, 2-(4-Isobutyl-phenyl)-N-[4-methyl-5-(2-nitrooxy-ethyl)-thiazol-2-yl]-propionamide]
Isolated rat aorta [1]
  vasorelaxation effect as compared with glyceryltrinitrate: superior
Isolated rat aorta [1]; [5]
  EC50: 50.1 nM
Isolated rat aorta [1]; [6]
  EC50: 50.1 nM
[2]
  levels of cGMP as compared with GTN: increased
Isolated rat aorta [3]; [7]
  EC50: 50.1 nM
Isolated rat aorta [3]; [8]
  EC50: 50.1 nM

## Cc1nc(-c2ccc(C(F)(F)F)cc2)sc1CCO[N+](=O)[O-] [Pet-59, 4-Methyl-5-(2-nitrooxy-ethyl)-2-(4-trifluoromethyl-phenyl)-thiazole]
Isolated rat aorta [1]
  vasorelaxation effect as compared with glyceryltrinitrate: superior
Isolated rat aorta [1]; [5]
  EC50: 79.4 nM
Isolated rat aorta [1]; [6]
  EC50: 79.4 nM
[2]
  levels of cGMP as compared with GTN: increased

## Cc1nc(Nc2cccc3ccccc23)sc1CCO[N+](=O)[O-] [Pet-149, [4-Methyl-5-(2-nitrooxy-ethyl)-thiazol-2-yl]-naphthalen-1-yl-amine]
Isolated rat aorta [1]
  vasorelaxation effect as compared with glyceryltrinitrate: superior
[2]
  levels of cGMP as compared with GTN: increased
  cGMP Post-infusion: 115 ± 14 pmol/g tissue
  cGMP Pre-infusion: 112 ± 12 pmol/g tissue
Isolated rat aorta [3]; [7]
  EC50: 39.8 nM
Isolated rat aorta [3]; [8]
  EC50: 43.3 nM
Isolated rat aorta [3]
  tolerance induction in vitro: absence of tolerance induction

## Cc1nc(N)sc1CCO[N+](=O)[O-] [Pet-10, 4-methyl-5-(2-nitrooxy-ethyl)-thiazole-2-ylamine]
[2]
  levels of cGMP as compared with GTN: increased

## CCNc1nc(C)c(CCO[N+](=O)[O-])s1 [Pet-147, Ethyl-[4-methyl-5-(2-nitrooxy-ethyl)-thiazol-2-yl]-amine]
Isolated rat aorta [1]; [5]
  EC50: 31.6 nM
Isolated rat aorta [1]; [6]
  EC50: 31.6 nM
[2]
  levels of cGMP as compared with GTN: increased

## Cc1nc(-c2ccccc2)sc1CCO[N+](=O)[O-] [Pet-8, 4-Methyl-5-(2-nitrooxy-ethyl)-2-phenyl-thiazole]
Isolated rat aorta [1]
  vasorelaxation effect as compared with glyceryltrinitrate: superior
Isolated rat aorta [1]; [5]
  EC50: 28.2 nM
Isolated rat aorta [1]; [6]
  EC50: 20 nM
[2]
  levels of cGMP as compared with GTN: increased
  cGMP Post-infusion: 136 ± 12 pmol/g tissue
  cGMP Pre-infusion: 133 ± 10 pmol/g tissue
Isolated rat aorta [3]; [7]
  EC50: 25.1 nM
Isolated rat aorta [3]; [8]
  EC50: 25.1 nM

## CNc1cncc(-c2nc(C)c(CCO[N+](=O)[O-])s2)n1 [Pet-24, Methyl-{6-[4-methyl-5-(2-nitrooxy-ethyl)-thiazol-2-yl]-pyrazin-2-yl}-amine]
Isolated rat aorta [1]; [5]
  EC50: 200 nM
Isolated rat aorta [1]; [6]
  EC50: 200 nM
[2]
  levels of cGMP as compared with GTN: increased
  cGMP Post-infusion: 112 ± 10 pmol/g tissue
  cGMP Pre-infusion: 115 ± 14 pmol/g tissue
Isolated rat aorta [3]; [7]
  EC50: 251 nM
Isolated rat aorta [3]; [8]
  EC50: 251 nM
Isolated rat aorta [3]
  tolerance induction in vitro: absence of tolerance induction

## Cc1nc(Nc2nc(C)c(CCO[N+](=O)[O-])s2)sc1CCO[N+](=O)[O-] [Pet-43, Bis-[4-methyl-5-(2-nitrooxy-ethyl)-thiazol-2-yl]-amine]
Isolated rat aorta [1]; Rattus norvegicus
  EC50: 158 nM
Isolated rat aorta [1]; [4]
  EC50: 159 nM
Isolated rat aorta [1]
  vasorelaxation effect as compared with glyceryltrinitrate: superior
Isolated rat aorta [3]; 1 h
  EC50: 251 nM
Isolated rat aorta [3]; 1 h, read-out: Concentration
  EC50: 251 nM
Isolated rat aorta [3]
  tolerance induction in vitro: absence of tolerance induction
